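All cell lines were grown in 96-well plates and treated with compound for 48 hours. The concentration for 50% growth inhibition is given as GI50. TGI marks complete inhibition of growth.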
What was measured:
Test in all cases: NCI tumour cell line growth inhibition, 48 h
[1] = system: HS 578T breast
[2] = system: K-562 leukemia
[3] = system: RXF 393 renal
[4] = system: A498 renal
[5] = system: SK-MEL-2 melanoma
[6] = system: HT29 colon
[7] = system: COLO 205 colon
[8] = system: MCF7 breast
[9] = system: SR leukemia
[10] = system: SK-OV-3 ovarian
[11] = system: A549 NSCLC
[12] = system: OVCAR-8 ovarian
[13] = system: SNB-75 CNS
[14] = system: RPMI-8226 leukemia
[15] = system: HL-60(TB) leukemia
[16] = system: CCRF-CEM leukemia
[17] = system: OVCAR-4 ovarian
[18] = system: EKVX NSCLC
[19] = system: HOP-92 NSCLC
[20] = system: T-47D breast
[21] = system: SW-620 colon
[22] = system: NCI/ADR-RES ovarian
[23] = system: BT-549 breast
[24] = system: TK-10 renal
[25] = system: M14 melanoma
[26] = system: UACC-257 melanoma
[27] = system: NCI-H226 lung
[28] = system: DU-145 prostate
[29] = system: SN12C renal
[30] = system: SF-268 CNS
[31] = system: HCT-15 colon
[32] = system: U251 CNS
[33] = system: MDA-MB-231 breast
[34] = system: HCC-2998 colon
[35] = system: 786-0 renal
[36] = system: SNB-19 CNS
[37] = system: PC-3 prostate
[38] = system: OVCAR-3 ovarian
[39] = system: NCI-H522 lung
[40] = system: OVCAR-5 ovarian
[41] = system: HOP-62 NSCLC
[42] = system: MDA-MB-435
[43] = system: NCI-H23 lung
[44] = system: MOLT-4 leukemia
[45] = system: UACC-62 melanoma
[46] = system: HCT-116 colon
[47] = system: ACHN renal
[48] = system: LOX IMVI melanoma
[49] = system: SK-MEL-28 melanoma
[50] = system: SF-539 CNS
[51] = system: SF-295 CNS
[52] = system: KM12 colon
[53] = system: CAKI-1 renal
[54] = system: UO-31 renal
[55] = system: NCI-H460 lung
[56] = system: SK-MEL-5 melanoma

`C[C@H](c1ccc(Cl)cc1[N+](=O)[O-])N1C(=O)c2cc(I)ccc2N=C(OCCCN2CCN(C)CC2)[C@@H]1c1ccc(Cl)cc1` was tested, and the GI50 [1] was 2.02 µM, the TGI [1] was 6.47 µM and the GI50 [2] was 1.81 µM. For the same compound, the TGI [2] was 4.03 µM, the GI50 [3] was 1.73 µM and the TGI [3] was 3.25 µM. It also gave a GI50 [4] of 2.08 µM, a TGI [4] of 5.42 µM and a GI50 [5] of 2.11 µM. It also gave a TGI [5] of 4.05 µM, a GI50 [6] of 1.91 µM and a TGI [6] of 3.49 µM. For the same compound, the GI50 [7] was 1.69 µM, the TGI [7] was 3.27 µM and the GI50 [8] was 1.64 µM. The TGI [8] was 3.26 µM, the GI50 [9] was 1.65 µM and the TGI [9] was 3.88 µM. The GI50 [10] was 1.79 µM, the TGI [10] was 3.24 µM and the GI50 [11] was 1.57 µM. It also gave a TGI [11] of 3.14 µM, a GI50 [12] of 1.61 µM and a TGI [12] of 3.4 µM. The GI50 [13] was 1.71 µM, the TGI [13] was 4.27 µM and the GI50 [14] was 2.33 µM. The TGI [14] was 6.5 µM, the GI50 [15] was 2.44 µM and the TGI [15] was 4.41 µM. For the same compound, the GI50 [16] was 2.18 µM, the TGI [16] was 5.41 µM and the GI50 [17] was 1.6 µM. The TGI [17] was 3.15 µM.

`Nc1nc(Cl)cc(OCC2(CO)CCC2)n1` showed a GI50 [18] of 60.6 µM, a GI50 [13] of 68.4 µM and a GI50 [19] of 51.3 µM.

`Cc1c(CNc2ccc(C(=O)NC(CCCNC(=O)c3ccccc3C(=O)O)C(=O)O)cc2)cnc2nc(N)nc(N)c12` (stereo unspecified) was tested, and the GI50 [20] was greater than 100 µM, the TGI [21] was greater than 100 µM and the TGI [22] was greater than 100 µM. For the same compound, the TGI [23] was 6.62 µM, the GI50 [3] was 0.279 µM and the TGI [3] was 2.15 µM. The GI50 [18] was 0.0834 µM, the TGI [18] was greater than 100 µM and the GI50 [24] was greater than 100 µM. For the same compound, the GI50 [4] was greater than 100 µM, the TGI [4] was greater than 100 µM and the GI50 [5] was greater than 100 µM. For the same compound, the GI50 [25] was 0.0385 µM, the GI50 [7] was 1.72 µM and the TGI [7] was 4.74 µM. For the same compound, the GI50 [26] was greater than 100 µM, the TGI [26] was greater than 100 µM and the GI50 [27] was 0.00248 µM. It also gave a TGI [27] of 2.91 µM, a TGI [28] greater than 100 µM and a TGI [29] greater than 100 µM. It also gave a GI50 [30] of 0.00161 µM, a TGI [31] greater than 100 µM and a GI50 [10] greater than 100 µM. For the same compound, the TGI [10] was greater than 100 µM, the TGI [11] was greater than 100 µM and the GI50 [32] was 0.00285 µM. It also gave a TGI [32] greater than 100 µM, a GI50 [33] greater than 100 µM and a TGI [33] greater than 100 µM. For the same compound, the GI50 [34] was 0.167 µM, the TGI [35] was greater than 100 µM and the GI50 [14] was 0.0216 µM. The TGI [14] was greater than 100 µM, the TGI [15] was greater than 100 µM and the GI50 [16] was greater than 100 µM. The TGI [36] was greater than 100 µM, the GI50 [19] was greater than 100 µM and the GI50 [37] was less than 0.0001 µM. The TGI [37] was greater than 100 µM, the TGI [38] was greater than 100 µM and the GI50 [39] was 0.00428 µM. It also gave a TGI [40] greater than 100 µM.

In the case of `COc1ccc2c(c1)[n+](=O)c(C(=O)c1cccs1)c(C(F)(F)F)n2[O-]`, the GI50 [20] was 5.26 µM, the TGI [20] was 29.8 µM and the GI50 [41] was 12.1 µM. It also gave a TGI [41] greater than 50 µM, a GI50 [21] of 8.43 µM and a TGI [21] greater than 50 µM. For the same compound, the GI50 [2] was 2.56 µM, the TGI [2] was greater than 50 µM and the GI50 [22] was 4.99 µM. For the same compound, the TGI [22] was greater than 50 µM, the GI50 [42] was 12.2 µM and the TGI [42] was greater than 50 µM. The GI50 [23] was 1.3 µM, the TGI [23] was 6.57 µM and the GI50 [43] was 2.88 µM. It also gave a TGI [43] of 25.8 µM, a GI50 [3] greater than 50 µM and a TGI [3] greater than 50 µM. For the same compound, the GI50 [44] was 24.9 µM, the TGI [44] was greater than 50 µM and the GI50 [18] was 1.48 µM. For the same compound, the TGI [18] was 8.21 µM, the GI50 [24] was 1.07 µM and the TGI [24] was 8.77 µM. It also gave a GI50 [5] of 10.8 µM, a TGI [5] greater than 50 µM and a GI50 [45] of 5.76 µM. The TGI [45] was 19.5 µM, the GI50 [25] was 10.9 µM and the TGI [25] was greater than 50 µM. For the same compound, the GI50 [6] was 8.65 µM, the TGI [6] was greater than 50 µM and the GI50 [7] was 7.49 µM. The TGI [7] was greater than 50 µM, the GI50 [46] was 12.3 µM and the TGI [46] was greater than 50 µM. The GI50 [8] was 4.58 µM, the TGI [8] was 23.7 µM and the GI50 [26] was 8.66 µM. For the same compound, the TGI [26] was 42 µM, the GI50 [27] was 9.58 µM and the TGI [27] was greater than 50 µM. For the same compound, the GI50 [47] was 8.64 µM, the TGI [47] was greater than 50 µM and the GI50 [48] was 2.09 µM. It also gave a TGI [48] of 12.7 µM, a GI50 [9] of 0.775 µM and a TGI [9] greater than 50 µM. The GI50 [28] was 2.57 µM, the TGI [28] was 12.7 µM and the GI50 [29] was 2.18 µM. The TGI [29] was 10.4 µM, the GI50 [30] was 3.94 µM and the TGI [30] was 27.4 µM. The GI50 [10] was 6.41 µM, the TGI [10] was greater than 50 µM and the GI50 [11] was 7.99 µM. The TGI [11] was greater than 50 µM, the GI50 [32] was 10.3 µM and the TGI [32] was greater than 50 µM. The GI50 [33] was 7.38 µM, the TGI [33] was 25.4 µM and the GI50 [12] was 2.79 µM. For the same compound, the TGI [12] was greater than 50 µM, the GI50 [49] was 16.3 µM and the TGI [49] was greater than 50 µM. It also gave a GI50 [34] of 4.72 µM, a TGI [34] of 22.7 µM and a GI50 [35] of 17 µM. It also gave a TGI [35] greater than 50 µM, a GI50 [13] of 9.11 µM and a TGI [13] greater than 50 µM. The GI50 [50] was 5.1 µM, the TGI [50] was 16.2 µM and the GI50 [51] was 2.89 µM. The TGI [51] was 16.5 µM, the GI50 [52] was 3.96 µM and the TGI [52] was 25.4 µM. For the same compound, the GI50 [53] was 2.87 µM, the TGI [53] was 11.7 µM and the GI50 [54] was 1.83 µM. It also gave a TGI [54] of 17.6 µM, a GI50 [14] of 3.41 µM and a TGI [14] greater than 50 µM. For the same compound, the GI50 [15] was 4.04 µM, the TGI [15] was greater than 50 µM and the GI50 [16] was 11 µM. For the same compound, the TGI [16] was greater than 50 µM, the GI50 [36] was 10.7 µM and the TGI [36] was greater than 50 µM. It also gave a GI50 [19] of 7.91 µM, a TGI [19] of 49.5 µM and a GI50 [37] of 2.42 µM. It also gave a TGI [37] of 18.6 µM, a GI50 [17] of 16.8 µM and a TGI [17] greater than 50 µM. For the same compound, the GI50 [38] was 2.09 µM, the TGI [38] was 11.3 µM and the GI50 [39] was 2 µM. It also gave a TGI [39] of 12.8 µM, a GI50 [55] of 1.68 µM and a TGI [55] of 13.8 µM. It also gave a GI50 [56] of 1.23 µM, a TGI [56] of 5.91 µM and a GI50 [40] of 4.81 µM. It also gave a TGI [40] greater than 50 µM.
